Tested on: genes predictive for the anti-inflammatory macrolide effect
Test: Genes statistically predictive of Clari response: differentially expressed with Clari but not the inactive macrolides MAA or Josa (Appendix E)
Assay type: cell-based
Description: In the case of the above-mentioned (i) related to arachidonic acid biosynthesis, specifically, methods of the embodiment involve assaying whether a test macrolide alters biosynthesis of arachidonic acid, alters the expression or activities of enzymes involved in the biosynthesis or activation of arachidonic acid (e.g., arachidonic acid CoA synthetase, delta-6 desaturase, fatty acid elongase, and delta-5 desaturase, AA-related genes in Tables 2 and 3), or alters the expression of genes identified as predictive for the anti-inflammatory macrolide effect (Appendix E). Assays in which arachidonic acid or gene expression or enzymatic activity is detected can be carried out after contacting a cell with a test macrolide. Any cell line that secretes prostaglandin or produces arachidonic acid can be used. Epithelial and macrophages lines (e.g., A549 or THP-1) are suitable for this purpose; other cell lines can be identified by carrying out assays such as those described in the specific Examples, below. Alternatively, screening assays can be carried out after adding a test macrolide to an in vitro cell system (e.g., a cellular extract or liver microsome preparation) or an in vitro enzyme assay system.

With `CO[C@@H]1[C@@H](O[C@@H]2O[C@H](C)[C@@H](O[C@H]3C[C@@](C)(O)[C@@H](OC(=O)CC(C)C)[C@H](C)O3)[C@H](N(C)C)[C@H]2O)[C@@H](CC=O)C[C@@H](C)[C@@H](O)/C=C/C=C/C[C@@H](C)OC(=O)C[C@H]1OC(C)=O` [josamycin] the “group mean, gene UNG” value (SpotID 48807, MAA and Josa vs. Clari) was 1.03, the “group mean, gene TUBB” value (SpotID 48914, MAA and Josa vs. Clari) was 0.96 and the “group mean, gene ITGAE” value (SpotID 48921, MAA and Josa vs. Clari) was 0.85. For the same compound, the “mean group, ITGAE” value (SpotID 48921, pooled group mean) was 0.85, the “group mean, gene P4HA2” value (SpotID 48971, MAA and Josa vs. Clari) was 1.07 and the “group mean, gene FADS1” value (SpotID 48998, MAA and Josa vs. Clari) was 1.02. The “group mean, gene PRSS25” value (SpotID 49006, MAA and Josa vs. Clari) was 1.02, the “mean group, PRSS25” value (SpotID 49006, pooled group mean) was 1.02 and the “group mean, gene TM9SF2” value (SpotID 49007, MAA and Josa vs. Clari) was 1.08. The “mean group, TM9SF2” value (SpotID 49007, pooled group mean) was 1.08, the “group mean, gene BBC3” value (SpotID 49013, MAA and Josa vs. Clari) was 0.93 and the “group mean, gene BNIP3L” value (SpotID 49028, MAA and Josa vs. Clari) was 1.03. For the same compound, the “mean group, BNIP3L” value (SpotID 49028, pooled group mean) was 1.03, the “group mean, gene GSK3B” value (SpotID 49032, MAA and Josa vs. Clari) was 1.06 and the “group mean, gene GLUD1” value (SpotID 49047, MAA and Josa vs. Clari) was 1.05. The “group mean, gene SERPINB1” value (SpotID 49117, MAA and Josa vs. Clari) was 1.01, the “mean group, SERPINB1” value (SpotID 49117, pooled group mean) was 1.01 and the “group mean, gene PPIB” value (SpotID 49142, MAA and Josa vs. Clari) was 1.03. For the same compound, the “group mean, gene PIK3R3” value (SpotID 49144, MAA and Josa vs. Clari) was 1.01, the “group mean, gene ARTS-1” value (SpotID 49155, MAA and Josa vs. Clari) was 1.11 and the “mean group, ARTS-1” value (SpotID 49155, pooled group mean) was 1.11. For the same compound, the “group mean, gene LGALS3” value (SpotID 49163, MAA and Josa vs. Clari) was 1.06, the “group mean, gene RRS1” value (SpotID 49169, MAA and Josa vs. Clari) was 1.09 and the “mean group, RRS1” value (SpotID 49169, pooled group mean) was 1.09. For the same compound, the “group mean, gene YAF2” value (SpotID 49172, MAA and Josa vs. Clari) was 1.01, the “group mean, gene NEDD8” value (SpotID 49177, MAA and Josa vs. Clari) was 0.97 and the “group mean, gene SRRM1” value (SpotID 49183, MAA and Josa vs. Clari) was 0.96. The “group mean, gene FUCA1” value (SpotID 49197, MAA and Josa vs. Clari) was 0.98, the “group mean, gene APOE” value (SpotID 49233, MAA and Josa vs. Clari) was 0.96 and the “mean group, APOE” value (SpotID 49233, pooled group mean) was 0.96. The “mean group, TNFRSF10B” value (SpotID 49272, pooled group mean) was 0.97, the “group mean, gene PPIB” value (SpotID 49314, MAA and Josa vs. Clari) was 1.04 and the “mean group, PPIB” value (SpotID 49314, pooled group mean) was 1.04. For the same compound, the “group mean, gene YWHAH” value (SpotID 49318, MAA and Josa vs. Clari) was 1.08, the “mean group, YWHAH” value (SpotID 49318, pooled group mean) was 1.08 and the “group mean, gene HNRPA3” value (SpotID 49347, MAA and Josa vs. Clari) was 1.01. The “group mean, gene NCBP2” value (SpotID 49352, MAA and Josa vs. Clari) was 0.94, the “group mean, gene TEB4” value (SpotID 49360, MAA and Josa vs. Clari) was 1.10 and the “mean group, TEB4” value (SpotID 49360, pooled group mean) was 1.10. For the same compound, the “group mean, gene ABCE1” value (SpotID 49364, MAA and Josa vs. Clari) was 1.06, the “group mean, gene EIF3S9” value (SpotID 49373, MAA and Josa vs. Clari) was 1.06 and the “mean group, SpotID 49374” value (SpotID 49374 (gene symbol not given), pooled group mean) was 0.97. For the same compound, the “group mean, SpotID 49374 (gene symbol not given)” value (SpotID 49374, MAA and Josa vs. Clari) was 0.97, the “group mean, gene SLC35A2” value (SpotID 49380, MAA and Josa vs. Clari) was 0.99 and the “group mean, gene PPP3CB” value (SpotID 49391, MAA and Josa vs. Clari) was 1.02. For the same compound, the “group mean, gene TRRAP” value (SpotID 49435, MAA and Josa vs. Clari) was 1.07, the “mean group, TRRAP” value (SpotID 49435, pooled group mean) was 1.07 and the “group mean, gene SRC” value (SpotID 49446, MAA and Josa vs. Clari) was 1.00. For the same compound, the “mean group, SRC” value (SpotID 49446, pooled group mean) was 1.00, the “group mean, gene LOC55871” value (SpotID 49481, MAA and Josa vs. Clari) was 0.90 and the “group mean, gene VTN” value (SpotID 49490, MAA and Josa vs. Clari) was 1.12. For the same compound, the “mean group, VTN” value (SpotID 49490, pooled group mean) was 1.12, the “group mean, gene MATN2” value (SpotID 49511, MAA and Josa vs. Clari) was 0.93 and the “group mean, gene GC20” value (SpotID 49512, MAA and Josa vs. Clari) was 1.01. The “group mean, gene UBC” value (SpotID 49514, MAA and Josa vs. Clari) was 0.97, the “mean group, UBC” value (SpotID 49514, pooled group mean) was 0.97 and the “group mean, gene AP1G2” value (SpotID 49524, MAA and Josa vs. Clari) was 0.74. The “mean group, AP1G2” value (SpotID 49524, pooled group mean) was 0.74, the “group mean, gene GNPI” value (SpotID 49546, MAA and Josa vs. Clari) was 1.05 and the “mean group, LOC54543” value (SpotID 49577, pooled group mean) was 0.88. The “group mean, gene PSMC4” value (SpotID 49580, MAA and Josa vs. Clari) was 1.12, the “mean group, CSTF3” value (SpotID 49606, pooled group mean) was 0.98 and the “group mean, gene POU4F1” value (SpotID 49608, MAA and Josa vs. Clari) was 0.97. The “group mean, gene CLN2” value (SpotID 49618, MAA and Josa vs. Clari) was 1.03, the “mean group, CLN2” value (SpotID 49618, pooled group mean) was 1.03 and the “group mean, gene FGF2” value (SpotID 49649, MAA and Josa vs. Clari) was 1.12. The “group mean, gene MAP3K10” value (SpotID 49650, MAA and Josa vs. Clari) was 0.93, the “mean group, BTN3A2” value (SpotID 49673, pooled group mean) was 0.92 and the “mean group, SERPINF1” value (SpotID 49679, pooled group mean) was 0.98. The “group mean, gene GSK3B” value (SpotID 49688, MAA and Josa vs. Clari) was 1.05, the “group mean, gene CAT” value (SpotID 49698, MAA and Josa vs. Clari) was 0.92 and the “group mean, gene PCYT2” value (SpotID 49705, MAA and Josa vs. Clari) was 0.92. The “group mean, gene HNRPD” value (SpotID 49715, MAA and Josa vs. Clari) was 0.99, the “group mean, gene GSK3B” value (SpotID 49735, MAA and Josa vs. Clari) was 1.02 and the “group mean, gene CHAF1B” value (SpotID 49737, MAA and Josa vs. Clari) was 0.99. For the same compound, the “mean group, CHAF1B” value (SpotID 49737, pooled group mean) was 0.99, the “group mean, gene USF2” value (SpotID 49744, MAA and Josa vs. Clari) was 0.93 and the “group mean, gene RPLP0” value (SpotID 49747, MAA and Josa vs. Clari) was 0.91.
